Experimental data reported in patent US20100144819A1, “Synergistic Methods for Control of Pests” (FMC A[…]. LTD., priority 2008, published 2010).

Experiments:
[1] = tested on: black house spider (Badumna insignis); assay: Black house spider mortality on treated pine plywood; assay type: in vivo; conditions: suspension concentrate diluted in water, 24 h
Source text: (§1) The presence of a synergistic effect between the two active ingredients is established with the aid of the Colby equation (see Colby, S. R., “Calculating Synergistic and Antagonistic Responses of Herbicide Combinations”, Weeds 1967, 15, pg 20-22): E=X+Y−(XY/100).
(§2) Using the method of Colby, the presence of asynergistic interaction between two active ingredients is established by first calculating the expected activity, ‘E’, of the mixture based on activities of the two components applied alone. If ‘E’ is lower than the observed activity, synergy is present. In the equation above, ‘X’ is the percentage control observed when bifenthrin applied alone at rate ‘x’. The ‘Y’ term is percentage control observed when fipronil applied alone at rate ‘y’. The equation calculates ‘E’, the expected activity of the mixture of ‘X’ at rate ‘x’ with ‘Y’ at rate ‘y’ if their effects are strictly additive and no interaction has occurred.
The compositions of the present invention were tested for black house spider (Badumna insignis) activity in the following manner:
Formulations of the test compounds were made as follows: • 1).
The testing was conducted on pine plywood surfaces that had dimensions of 20 cm×20 cm. The above formulations were diluted in water to achieve the desired concentration rate in grams of active ingredient per liter prior to application to the pine plywood. Each treatment was applied using an airbrush sprayer and compressed air as the propellant. The equipment was calibrated prior to use and the treatments were applied to the pine plywood surfaces at a rate of 1 L/10 m^2 (4 mL of final test solution per 20 cm×20 cm pine plywood surface)'. For example, in order to obtain a application rate of […] of active ingredient per 10 m^2, 1.25 mL of the fipronil formulation 1) which contained 100 gram per liter suspension concentrate formulation of fipronil, was diluted in 1 liter of water to make a final test solution. Four mL of the final test solution was sprayed onto the pine plywood surface. The treated pine plywood was allowed to air dry at ambient temperature by storing horizontally away from direct sunlight. Three black house spiders, medium to large in size collected from the field 1 to 2 days prior to testing, were placed separately under untreated portion cups (7 cm diameter by 7 cm deep) on the treated pine plywood surfaces. The untreated portion cups provided an opportunity for the spiders to seek an untreated area. The spiders were assessed after 24 hours exposure by counting the number of alive and the number of knocked down/dead spiders. There were three replications of each treatment.

[2] = tested on: American cockroach (Periplaneta americana); assay: American cockroach mortality on treated filter paper; assay type: in vivo; conditions: 24 h
Source text: as §1, §2
The compositions of the present invention were tested for American cockroach (Periplaneta americana) activity in the following manner:
Test solutions were made by dissolving technical grade bifenthrin and fipronil in acetone to provide appropriate rates of application of bifenthrin and fipronil alone, as well as combinations of bifenthrin and fipronil. The active ingredient concentrations tested were from 10 part per million (0.01 mg of active ingredient/mL or 0.01 g/L) to 1000 parts per million (1.0 mg of active ingredient/mL or 1.0 g/L), four replicates per rate. In a fume cabinet, one milliliter of a test solution was applied to a 9 cm Whatman® 2 qualitative filter paper using a calibrated pipette. The application started at the center of the filter paper with individual drops being applied in an outward circular motion so that the entire filter paper was uniformly treated. Acetone only (one mL) was applied in the same manner to provide an untreated control (UTC). The treated filter papers were allowed to dry for two hours. The dried, treated or untreated filter paper was placed into a plastic cup having a base diameter of 90 mm, in which the upper portion of the walls of the plastic cup were coated with a fluoropolymer resin (PFTE-30) insect barrier (Fluoron® available from BioQuip Products Inc.) to prevent the insects from climbing out of the container. Ten late instar, healthy and active American cockroaches (Periplaneta americana) were momentarily immobilized using carbon dioxide and then placed onto the filter paper. The top of the plastic containers were covered with gauze to contain the cockroaches. The plastic containers were maintained at a temperature of 25° C. to 30° C. at ambient relative humidity out of direct sunlight. American cockroach mortality was assessed after 24 hours by counting the number of alive and the number of knocked down/dead cockroaches.
(§3) In order to compare the pesticidal effectiveness of the individual and combination treatments the LC 50 and LC 90 values (lethal concentration in ppm that would effectively knock down/kill 50% or 90% of the test pests) were calculated. In calculating the LC values for the various mixtures of bifenthrin and fipronil, probit analysis was conducted on the bifenthrin in concentration of the mixture. […] The values calculated from the data of Table 2 are in Table 2A below.

[3] = tested on: German cockroach (Blatella germanica); assay: German cockroach mortality on treated filter paper; assay type: in vivo, Blattella germanica; conditions: 24 h
Source text: as §1, §2
The compositions of the present invention were tested for German cockroach (Blatella germanica) activity in the following manner.
Test solutions were made by dissolving technical grade bifenthrin and fipronil in acetone to provide appropriate rates of application of bifenthrin and fipronil alone, as well as combinations of bifenthrin and fipronil. The active ingredient concentrations tested were from 50 parts per million (0.05 mg of active ingredient/mL or 0.05 g/L) to 500 parts per million (0.5 mg of active ingredient/mL or 0.5 g/L), four replicates per rate. In a fume cabinet, one milliliter of a test solution was applied to a 9 cm Whatman® 2 qualitative filter paper using a calibrated pipette. The application started at the center of the filter paper with individual drops being applied in an outward circular motion so that the entire filter paper was uniformly treated. Acetone only (one mL) was applied in the same manner to provide an untreated control (UTC). The treated filter papers were allowed to dry for two hours. The dried, treated or untreated filter paper was placed into a plastic Petri dish and ten late instar, healthy and active German cockroaches (Blattella germanica) were momentarily immobilized using carbon dioxide and then placed onto the filter paper. The lid of each Petri dish was put on to contain the cockroaches. The Petri dishes were maintained at a temperature of 25° C. to 30° C. at ambient relative humidity out of direct sunlight. German cockroach mortality was assessed after 24 hours by counting the number of alive and the number of knocked down/dead cockroaches.
as §3, with “fipronil” for “bifenthrin in”, “1” for “2”, “1A” for “2A”

[4] = probit analysis of Table 2 data, mixtures as bifenthrin:fipronil
[5] = probit analysis of Table 1 data, mixtures as bifenthrin:fipronil

N#Cc1nn(-c2c(Cl)cc(C(F)(F)F)cc2Cl)c(N)c1[S+]([O-])C(F)(F)F [Fipronil, (5-amino-[2,6-dichloro-4(trifluoromethyl)phenyl]-4-[(1R,S)-(trifluoromethyl)sulfinyl]-1H-pyrazole-3-carbonitrile]
Observed % Control ([1]; 0.125 g ai/L at 1 L/10 m^2): 0.0% | Observed % Control ([1]; 0.25 g ai/L at 1 L/10 m^2): 0.0% | Observed % Control ([1]; 0.5 g ai/L at 1 L/10 m^2): 0.0% | % Observed Control ([2]; 10 ppm (0.01 mg/mL)): 0% | Mortality Rep 1 dead/alive ([2]; 10 ppm (0.01 mg/mL)): 0/10 | Mortality Rep 2 dead/alive ([2]; 10 ppm (0.01 mg/mL)): 0/10 | Mortality Rep 3 dead/alive ([2]; 10 ppm (0.01 mg/mL)): 0/10 | Mortality Rep 4 dead/alive ([2]; 10 ppm (0.01 mg/mL)): 0/10 | % Observed Control ([2]; 20 ppm (0.02 mg/mL)): 0% | Mortality Rep 1 dead/alive ([2]; 20 ppm (0.02 mg/mL)): 0/10 | Mortality Rep 2 dead/alive ([2]; 20 ppm (0.02 mg/mL)): 0/10 | Mortality Rep 3 dead/alive ([2]; 20 ppm (0.02 mg/mL)): 0/10 | Mortality Rep 4 dead/alive ([2]; 20 ppm (0.02 mg/mL)): 0/10 | % Observed Control ([2]; 25 ppm (0.025 mg/mL)): 0% | Mortality Rep 1 dead/alive ([2]; 25 ppm (0.025 mg/mL)): 0/10 | Mortality Rep 2 dead/alive ([2]; 25 ppm (0.025 mg/mL)): 0/10 | Mortality Rep 3 dead/alive ([2]; 25 ppm (0.025 mg/mL)): 0/10 | Mortality Rep 4 dead/alive ([2]; 25 ppm (0.025 mg/mL)): 0/10 | % Observed Control ([2]; 50 ppm (0.05 mg/mL)): 0% | Mortality Rep 1 dead/alive ([2]; 50 ppm (0.05 mg/mL)): 0/10 | Mortality Rep 2 dead/alive ([2]; 50 ppm (0.05 mg/mL)): 0/10 | Mortality Rep 3 dead/alive ([2]; 50 ppm (0.05 mg/mL)): 0/10 | Mortality Rep 4 dead/alive ([2]; 50 ppm (0.05 mg/mL)): 0/10 | % Observed Control ([2]; 100 ppm (0.1 mg/mL)): 2.5% | Mortality Rep 1 dead/alive ([2]; 100 ppm (0.1 mg/mL)): 0/10 | Mortality Rep 2 dead/alive ([2]; 100 ppm (0.1 mg/mL)): 0/10 | Mortality Rep 3 dead/alive ([2]; 100 ppm (0.1 mg/mL)): 0/10 | Mortality Rep 4 dead/alive ([2]; 100 ppm (0.1 mg/mL)): 1/9 | % Observed Control ([2]; 125 ppm (0.125 mg/mL)): 2.5% | Mortality Rep 1 dead/alive ([2]; 125 ppm (0.125 mg/mL)): 0/10 | Mortality Rep 2 dead/alive ([2]; 125 ppm (0.125 mg/mL)): 0/10 | Mortality Rep 3 dead/alive ([2]; 125 ppm (0.125 mg/mL)): 0/10 | Mortality Rep 4 dead/alive ([2]; 125 ppm (0.125 mg/mL)): 1/9 | % Observed Control ([2]; 200 ppm (0.2 mg/mL)): 2.5% | Mortality Rep 1 dead/alive ([2]; 200 ppm (0.2 mg/mL)): 0/10 | Mortality Rep 2 dead/alive ([2]; 200 ppm (0.2 mg/mL)): 0/10 | Mortality Rep 3 dead/alive ([2]; 200 ppm (0.2 mg/mL)): 1/9 | Mortality Rep 4 dead/alive ([2]; 200 ppm (0.2 mg/mL)): 0/10 | % Observed Control ([2]; 250 ppm (0.25 mg/mL)): 45% | Mortality Rep 1 dead/alive ([2]; 250 ppm (0.25 mg/mL)): 0/10 | Mortality Rep 2 dead/alive ([2]; 250 ppm (0.25 mg/mL)): 8/2 | Mortality Rep 3 dead/alive ([2]; 250 ppm (0.25 mg/mL)): 7/3 | Mortality Rep 4 dead/alive ([2]; 250 ppm (0.25 mg/mL)): 3/7 | % Observed Control ([2]; 500 ppm (0.5 mg/mL)): 45% | Mortality Rep 1 dead/alive ([2]; 500 ppm (0.5 mg/mL)): 1/9 | Mortality Rep 2 dead/alive ([2]; 500 ppm (0.5 mg/mL)): 8/2 | Mortality Rep 3 dead/alive ([2]; 500 ppm (0.5 mg/mL)): 5/5 | Mortality Rep 4 dead/alive ([2]; 500 ppm (0.5 mg/mL)): 4/6 | LC 50 [2, 4]: 1013 ppm | LC 90 [2, 4]: 1742 ppm | % Observed Control ([3]; 50 ppm (0.05 mg/mL)): 22.5% | Mortality Rep 1 dead/alive ([3]; 50 ppm (0.05 mg/mL)): 7/3 | Mortality Rep 2 dead/alive ([3]; 50 ppm (0.05 mg/mL)): 1/9 | Mortality Rep 3 dead/alive ([3]; 50 ppm (0.05 mg/mL)): 0/10 | Mortality Rep 4 dead/alive ([3]; 50 ppm (0.05 mg/mL)): 1/9 | % Observed Control ([3]; 100 ppm (0.1 mg/mL)): 42.5% | Mortality Rep 1 dead/alive ([3]; 100 ppm (0.1 mg/mL)): 6/4 | Mortality Rep 2 dead/alive ([3]; 100 ppm (0.1 mg/mL)): 3/7 | Mortality Rep 3 dead/alive ([3]; 100 ppm (0.1 mg/mL)): 4/6 | Mortality Rep 4 dead/alive ([3]; 100 ppm (0.1 mg/mL)): 4/6 | % Observed Control ([3]; 250 ppm (0.25 mg/mL)): 100% | Mortality Rep 1 dead/alive ([3]; 250 ppm (0.25 mg/mL)): 10/0 | Mortality Rep 2 dead/alive ([3]; 250 ppm (0.25 mg/mL)): 10/0 | Mortality Rep 3 dead/alive ([3]; 250 ppm (0.25 mg/mL)): 10/0 | Mortality Rep 4 dead/alive ([3]; 250 ppm (0.25 mg/mL)): 10/0 | % Observed Control ([3]; 500 ppm (0.5 mg/mL)): 100% | Mortality Rep 1 dead/alive ([3]; 500 ppm (0.5 mg/mL)): 10/0 | Mortality Rep 2 dead/alive ([3]; 500 ppm (0.5 mg/mL)): 10/0 | Mortality Rep 3 dead/alive ([3]; 500 ppm (0.5 mg/mL)): 10/0 | Mortality Rep 4 dead/alive ([3]; 500 ppm (0.5 mg/mL)): 10/0 | LC 50 [3, 5]: 102 ppm | LC 90 [3, 5]: 179 ppm
